Laboratory results as given in PubChem BioAssay (NCI).
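All cell lines were grown in 96-well plates and treated with compound for 48 hours. The concentration for full growth arrest is given as TGI.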

test system: NCI-H522 lung; experiment: growth of human tumour cells (NCI), 48 h

SMILES | TGI [µM]
O=C1NC(N/N=C/C(O)C(O)C(O)C(O)CO)=N/C1=C\c1ccco1 (centres undefined) | > 100
C=C(C)[C@@H]1CCC2=C[C@@H](OC2=O)[C@@H](C(=C)C)C2=CC(C(=O)O)=C(C1)O2 | > 100
CC1OC(OC2C(O[C@H]3CC[C@@H]4C(=CC[C@@H]5[C@@]4(C)C(=O)C[C@]4(C)[C@@H]([C@H](C)CC[C@@H](O)C(C)(C)O)CC[C@@]54C)C3(C)C)OC(CO)C(O)C2O)C(O)C(O)C1O (some centres undefined) | > 100
c1ccc(C(C2=Nc3cccc4cccc(c34)N2)c2ccccc2)cc1 | 36.3
CC1=CC(=O)[C@@H](O)[C@]2(C)[C@H]3[C@@]4(O)OC[C@]35[C@H]([C@@H](C)[C@H]4O)[C@@H](OC(=O)C(C)(C)CO)C(=O)O[C@@H]5C[C@@H]12 | 0.417

test system: BT-549 breast; experiment: growth of human tumour cells (NCI), 48 h

SMILES | TGI [µM]
CN(Cc1cnc2nc(N)nc(N)c2n1)c1ccc(C(=O)NCCS(=O)(=O)O)cc1 | > 100
O=C1NC(N/N=C/c2ccccc2)=N/C1=C\c1ccco1 | 70.6
O=C(C1OC1c1ccc(Cl)cc1)C12CC3CC(CC(C3)C1)C2 (centres undefined) | 52.1
O=[N+]([O-])c1cccc2nc3ccccc3c(NCCCCNc3c4ccccc4nc4cccc([N+](=O)[O-])c34)c12 | 1.79
NC(=O)c1ccc(C(=O)Nc2ccc([As](=O)(O)O)cc2)cc1 | > 100
O=C1NC(N/N=C/C(O)C(O)C(O)C(O)CO)=N/C1=C\c1ccco1 (centres undefined) | > 100
C=C(C)[C@@H]1CCC2=C[C@@H](OC2=O)[C@@H](C(=C)C)C2=CC(C(=O)O)=C(C1)O2 | > 100
CC1OC(OC2C(O[C@H]3CC[C@@H]4C(=CC[C@@H]5[C@@]4(C)C(=O)C[C@]4(C)[C@@H]([C@H](C)CC[C@@H](O)C(C)(C)O)CC[C@@]54C)C3(C)C)OC(CO)C(O)C2O)C(O)C(O)C1O (some centres undefined) | > 100
c1ccc(C(C2=Nc3cccc4cccc(c34)N2)c2ccccc2)cc1 | 61.4
CC1=CC(=O)[C@@H](O)[C@]2(C)[C@H]3[C@@]4(O)OC[C@]35[C@H]([C@@H](C)[C@H]4O)[C@@H](OC(=O)C(C)(C)CO)C(=O)O[C@@H]5C[C@@H]12 | 0.423

test system: SK-MEL-28 melanoma; experiment: growth of human tumour cells (NCI), 48 h

SMILES | TGI [µM]
CN(Cc1cnc2nc(N)nc(N)c2n1)c1ccc(C(=O)NCCS(=O)(=O)O)cc1 | > 100
O=C1NC(N/N=C/c2ccccc2)=N/C1=C\c1ccco1 | > 100
O=C(C1OC1c1ccc(Cl)cc1)C12CC3CC(CC(C3)C1)C2 (centres undefined) | 32.5
O=[N+]([O-])c1cccc2nc3ccccc3c(NCCCCNc3c4ccccc4nc4cccc([N+](=O)[O-])c34)c12 | 0.522
NC(=O)c1ccc(C(=O)Nc2ccc([As](=O)(O)O)cc2)cc1 | > 100
O=C1NC(N/N=C/C(O)C(O)C(O)C(O)CO)=N/C1=C\c1ccco1 (centres undefined) | > 100
CC1OC(OC2C(O[C@H]3CC[C@@H]4C(=CC[C@@H]5[C@@]4(C)C(=O)C[C@]4(C)[C@@H]([C@H](C)CC[C@@H](O)C(C)(C)O)CC[C@@]54C)C3(C)C)OC(CO)C(O)C2O)C(O)C(O)C1O (some centres undefined) | > 100
c1ccc(C(C2=Nc3cccc4cccc(c34)N2)c2ccccc2)cc1 | 52
CC1=CC(=O)[C@@H](O)[C@]2(C)[C@H]3[C@@]4(O)OC[C@]35[C@H]([C@@H](C)[C@H]4O)[C@@H](OC(=O)C(C)(C)CO)C(=O)O[C@@H]5C[C@@H]12 | > 100

test system: HCT-116 colon; experiment: growth of human tumour cells (NCI), 48 h

SMILES | TGI [µM]
CN(Cc1cnc2nc(N)nc(N)c2n1)c1ccc(C(=O)NCCS(=O)(=O)O)cc1 | > 100
O=C1NC(N/N=C/c2ccccc2)=N/C1=C\c1ccco1 | > 100
O=C(C1OC1c1ccc(Cl)cc1)C12CC3CC(CC(C3)C1)C2 (centres undefined) | 28.8
O=[N+]([O-])c1cccc2nc3ccccc3c(NCCCCNc3c4ccccc4nc4cccc([N+](=O)[O-])c34)c12 | 0.0347
NC(=O)c1ccc(C(=O)Nc2ccc([As](=O)(O)O)cc2)cc1 | > 100
O=C1NC(N/N=C/C(O)C(O)C(O)C(O)CO)=N/C1=C\c1ccco1 (centres undefined) | > 100
C=C(C)[C@@H]1CCC2=C[C@@H](OC2=O)[C@@H](C(=C)C)C2=CC(C(=O)O)=C(C1)O2 | > 100
CC1OC(OC2C(O[C@H]3CC[C@@H]4C(=CC[C@@H]5[C@@]4(C)C(=O)C[C@]4(C)[C@@H]([C@H](C)CC[C@@H](O)C(C)(C)O)CC[C@@]54C)C3(C)C)OC(CO)C(O)C2O)C(O)C(O)C1O (some centres undefined) | > 100
CC1=CC(=O)[C@@H](O)[C@]2(C)[C@H]3[C@@]4(O)OC[C@]35[C@H]([C@@H](C)[C@H]4O)[C@@H](OC(=O)C(C)(C)CO)C(=O)O[C@@H]5C[C@@H]12 | 2.11

test system: UACC-257 melanoma; experiment: growth of human tumour cells (NCI), 48 h

SMILES | TGI [µM]
CN(Cc1cnc2nc(N)nc(N)c2n1)c1ccc(C(=O)NCCS(=O)(=O)O)cc1 | > 100
O=C1NC(N/N=C/c2ccccc2)=N/C1=C\c1ccco1 | > 100
O=C(C1OC1c1ccc(Cl)cc1)C12CC3CC(CC(C3)C1)C2 (centres undefined) | 54.7
O=[N+]([O-])c1cccc2nc3ccccc3c(NCCCCNc3c4ccccc4nc4cccc([N+](=O)[O-])c34)c12 | 0.682
O=C1NC(N/N=C/C(O)C(O)C(O)C(O)CO)=N/C1=C\c1ccco1 (centres undefined) | > 100
C=C(C)[C@@H]1CCC2=C[C@@H](OC2=O)[C@@H](C(=C)C)C2=CC(C(=O)O)=C(C1)O2 | > 100
CC1OC(OC2C(O[C@H]3CC[C@@H]4C(=CC[C@@H]5[C@@]4(C)C(=O)C[C@]4(C)[C@@H]([C@H](C)CC[C@@H](O)C(C)(C)O)CC[C@@]54C)C3(C)C)OC(CO)C(O)C2O)C(O)C(O)C1O (some centres undefined) | > 100
c1ccc(C(C2=Nc3cccc4cccc(c34)N2)c2ccccc2)cc1 | 68

test system: SF-268 CNS; experiment: growth of human tumour cells (NCI), 48 h

SMILES | TGI [µM]
CN(Cc1cnc2nc(N)nc(N)c2n1)c1ccc(C(=O)NCCS(=O)(=O)O)cc1 | > 100
O=C1NC(N/N=C/c2ccccc2)=N/C1=C\c1ccco1 | 75.6
O=C(C1OC1c1ccc(Cl)cc1)C12CC3CC(CC(C3)C1)C2 (centres undefined) | 53
